The text below walks through data of patent publication US10899759B2, “Positive allosteric modulators of the muscarinic acetylcholine receptor M1” (Vanderbilt University, priority 2016, dated 2021).

The assay deals with T1, human mAChR M1 (Homo sapiens, UniProt P11229).
T1 construct: host or cells: CHO-K1
T1 sequence (P11229 1-460): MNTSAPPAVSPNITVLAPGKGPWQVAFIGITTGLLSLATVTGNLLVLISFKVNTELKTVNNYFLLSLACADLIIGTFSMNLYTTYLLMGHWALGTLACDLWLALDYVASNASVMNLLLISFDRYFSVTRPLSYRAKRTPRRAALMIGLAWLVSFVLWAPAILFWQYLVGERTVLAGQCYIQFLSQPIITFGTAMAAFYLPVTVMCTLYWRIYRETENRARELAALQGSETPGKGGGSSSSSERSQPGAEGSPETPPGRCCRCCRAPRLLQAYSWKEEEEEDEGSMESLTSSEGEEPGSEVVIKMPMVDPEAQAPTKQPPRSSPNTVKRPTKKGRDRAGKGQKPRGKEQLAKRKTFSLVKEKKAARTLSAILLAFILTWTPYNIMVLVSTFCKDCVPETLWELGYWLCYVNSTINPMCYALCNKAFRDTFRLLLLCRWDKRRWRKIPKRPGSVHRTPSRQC
The assay is described as follows: mAChR M1 cell-based functional assay (calcium mobilization, Fluo-4, FDSS). To be noted: for EC50: positive allosteric modulator activity as increase in the EC20 acetylcholine response. The procedure:
Chinese hamster ovary (CHO-K1) cells stably expressing rat (r)M1 were purchased from the American Type Culture Collection and cultured according to their indicated protocol. […] To make stable rM2, hM2, rM3, hM4, and rM4 cell lines for use in calcium mobilization assays, these cells also were stably transfected with a chimeric G-protein (Gqi5) (provided by B. R. Conklin, University of California, San Francisco) using Lipofectamine 2000. rM1, hM1, rM3, hM3, rM5, and hM5 cells were grown in Ham's F-12 medium containing 10% heat-inactivated fetal bovine serum (FBS), 20 mM HEPES, and 50 μg/mL G418 sulfate. rM2-Gqi5, hM2-Gqi5, and hM4-Gqi5 cells were grown in the same medium also containing 500 μg/mL Hygromycin B. Stable rM4-Gqi5 cells were grown in DMEM containing 10% heat-inactivated FBS, 20 mM HEPES, 400 μg/mL G418 sulfate, and 500 μg/mL Hygromycin B.
For high throughput measurement of agonist-evoked increases in intracellular calcium, CHO-K1 cells stably expressing muscarinic receptors were plated in growth medium lacking G418 and hygromycin at 15,000 cells/20 μL/well in Greiner 384-well black-walled, tissue culture (TC)-treated, clear-bottom plates (VWR). Cells were incubated overnight at 37° C. and 5% CO2. […] Compound master plates were formatted in an 11 point CRC format (1:3 dilutions) in 100% DMSO with a starting concentration of 10 mM using the BRAVO liquid handler (Agilent). Test compound CRCs were then transferred to daughter plates (240 nL) using the Echo acoustic plate reformatter (Labcyte, Sunnyvale, Calif.) and then diluted into assay buffer (40 μL) to a 2× stock using a Thermo Fisher Combi (Thermo Fisher Scientific, Waltham, Mass.).
Calcium flux was measured using the Functional Drug Screening System (FDSS) 6000 (Hamamatsu Corporation, Tokyo, Japan) as an increase in the fluorescent static ratio. Compounds were applied to cells (20 μL, 2×) using the automated system of the FDSS 6000 at 4 s into the 300 s protocol and the data were collected at 1 Hz. […] Agonist activity was analyzed as a concentration-dependent increase in calcium mobilization upon compound addition. Positive allosteric modulator activity was analyzed as a concentration-dependent increase in the EC20 acetylcholine response. Antagonist activity was analyzed as a concentration-dependent decrease in the EC80 acetylcholine response. Concentration-response curves were generated using a four-parameter logistical equation in XLfit curve fitting software (IDBS, Bridgewater, N.J.) for Excel (Microsoft, Redmond, Wash.) or Prism (GraphPad Software, Inc., San Diego, Calif.).
The compound numbers correspond to the compound numbers used in Table 1.

Where [1] appears, read: CHO-K1 cells stably expressing hM1.
Where [2] appears, read: CHO-K1 cells stably expressing hM1, EC20 acetylcholine response, read-out: Human M1 Emax.

Like-named read-outs stand apart in the source and are kept apart here.

In the case of “1-methyl-N-tetrahydropyran-4-yl-4-[(4-thiazol-2-ylphenyl)methyl]pyrrolo[2,3-b]pyridine-6-carboxamide [Compound 61]”, the “Human M1 Emax” value (CHO-K1 cells stably expressing hM1, EC20 acetylcholine response) was 56.7%. For the same molecule, under setting [1], the EC50 came to 840 nM.
Consider `Cn1ncc2c(Cc3ccc(-c4cscn4)cc3)cc(C(=O)NC3CCOCC3)nc21` [Compound 1, 1-methyl-N-tetrahydropyran-4-yl-4-[(4-thiazol-4-ylphenyl)methyl]pyrazolo[3,4-b]pyridine-6-carboxamide], for which the Emax under setting [2] stood at 69%. In addition, under setting [1], the concentration for a half-maximal effect (EC50) was determined as 1420 nM.
Consider `Cn1ccc2c(Cc3ccc(-c4cscn4)cc3)cc(C(=O)NC3CCOCC3)nc21` [Compound 2, 1-methyl-N-tetrahydropyran-4-yl-4-[(4-thiazol-4-ylphenyl)methyl]pyrrolo[2,3-b]pyridine-6-carboxamide], for which, under setting [2], the Emax was 71.2%. In addition, under setting [1], the EC50 turned out to be 230 nM.
Take `Cn1ccc2c(Cc3ccc(-c4cscn4)cc3)cc(C(=O)N[C@H]3CC[C@@H]3O)nc21` [Compound 3, N-[(1S,2S)-2-hydroxycyclobutyl]-1-methyl-4-[(4-thiazol-4-ylphenyl)methyl]pyrrolo[2,3-b]pyridine-6-carboxamide]: the maximum response (Emax) (CHO-K1, read-out: Human M1 Emax) is 70.4%. Also, under setting [1], the EC50 was found to be 360 nM.
Regarding `Cc1nc(-c2ccc(Cc3cc(C(=O)NC4CCOCC4)nc4sccc34)cc2)co1` [Compound 4, 4-[[4-(2-methyloxazol-4-yl)phenyl]methyl]-N-tetrahydropyran-4-yl-thieno[2,3-b]pyridine-6-carboxamide], the Emax under setting [2] came to 57.9%. For the same molecule, under setting [1], the EC50 was 140 nM.
On to `Cn1ncc2c(Cc3ccc(-n4cccn4)cc3)cc(C(=O)NC3CCOCC3)nc21` [Compound 5, 1-methyl-4-[(4-pyrazol-1-ylphenyl)methyl]-N-tetrahydropyran-4-yl-pyrazolo[3,4-b]pyridine-6-carboxamide], for which the maximal response (Emax) under setting [2] was found to be 67.9%. In addition, the 50% effective concentration (EC50) under setting [1] is 5940 nM.
In the case of `Cn1ncc2c(Cc3ccc(-n4cccn4)cc3)cc(C(=O)NC3CC4(COC4)C3)nc21` [Compound 6, 1-methyl-N-(2-oxaspiro[3.3]heptan-6-yl)-4-[(4-pyrazol-1-ylphenyl)methyl]pyrazolo[3,4-b]pyridine-6-carboxamide], the Emax under setting [2] came to 69.9%. Moreover, the 50% effective concentration (EC50) under setting [1] is 1730 nM.
Consider `Cn1ncc2c(Cc3ccc(-n4cccn4)cc3)cc(C(=O)N[C@H]3CCOC[C@@H]3O)nc21` [Compound 7, N-[(3R,4S)-3-hydroxytetrahydropyran-4-yl]-1-methyl-4-[(4-pyrazol-1-ylphenyl)methyl]pyrazolo[3,4-b]pyridine-6-carboxamide], for which the maximal effect (Emax) under setting [2] worked out at 89%. Also, the EC50 under setting [1] is 200 nM.
Consider `Cn1ncc2c(Cc3ccc(-n4cccn4)cc3)cc(C(=O)N[C@H]3CCCC[C@@H]3O)nc21` [Compound 8, N-[(1S,2S)-2-hydroxycyclohexyl]-1-methyl-4-[(4-pyrazol-1-ylphenyl)methyl]pyrazolo[3,4-b]pyridine-6-carboxamide], for which the Emax under setting [2] was 86.6%. Besides, the 50% effective concentration (EC50) under setting [1] worked out at 200 nM.
As to `CCn1ccc2c(Cc3ccc(-n4cccn4)cc3)cc(C(=O)N[C@H]3CCOC[C@@H]3O)nc21` [Compound 9, 1-ethyl-N-[(3R,4S)-3-hydroxytetrahydropyran-4-yl]-4-[(4-pyrazol-1-ylphenyl)methyl]pyrrolo[2,3-b]pyridine-6-carboxamide], under setting [2], the Emax is 64.7%. The EC50 under setting [1] was determined as 20 nM.
`CCn1ccc2c(Cc3ccc(-n4cccn4)cc3)cc(C(=O)N[C@H]3CCCC[C@@H]3O)nc21` [Compound 10, 1-ethyl-N-[(1S,2S)-2-hydroxycyclohexyl]-4-[(4-pyrazol-1-ylphenyl)methyl]pyrrolo[2,3-b]pyridine-6-carboxamide]: under setting [2], the maximal response (Emax) came to 69.9%. In addition, the EC50 under setting [1] is 60 nM.
In the same order, the values of `CCn1ccc2c(Cc3ccc(-n4cccn4)cc3)cc(C(=O)NC3CCOCC3)nc21` [Compound 11, 1-ethyl-4-[(4-pyrazol-1-ylphenyl)methyl]-N-tetrahydropyran-4-yl-pyrrolo[2,3-b]pyridine-6-carboxamide] are 74% and 280 nM.
Take `CCn1ccc2c(Cc3ccc(-n4cccn4)cc3)cc(C(=O)NC3CC4(COC4)C3)nc21` [Compound 12, 1-ethyl-N-(2-oxaspiro[3.3]heptan-6-yl)-4-[(4-pyrazol-1-ylphenyl)methyl]pyrrolo[2,3-b]pyridine-6-carboxamide]: under setting [2], the Emax was 72.3%. Besides, under setting [1], the EC50 stood at 200 nM.
In the same order, the values of `CCn1ccc2c(Cc3ccc(-n4cccn4)cc3)cc(C(=O)N[C@H]3CC[C@@H]3O)nc21` [Compound 13, 1-ethyl-N-[(1S,2S)-2-hydroxycyclobutyl]-4-[(4-pyrazol-1-ylphenyl)methyl]pyrrolo[2,3-b]pyridine-6-carboxamide] are 70.7% and 410 nM.
On to `CCn1ccc2c(Cc3ccc(-n4cccn4)cc3)cc(C(=O)N[C@H]3CCC[C@@H]3O)nc21` [Compound 14, 1-ethyl-N-[(1S,2S)-2-hydroxycyclopentyl]-4-[(4-pyrazol-1-ylphenyl)methyl]pyrrolo[2,3-b]pyridine-6-carboxamide], for which the Emax under setting [2] was found to be 69.4%. Besides, the EC50 under setting [1] is 150 nM.
On the same counts, the results for `CCn1ccc2c(Cc3ccc(-n4cccn4)cc3)cc(C(=O)N[C@H]3CCCCC[C@@H]3O)nc21` [Compound 15, 1-ethyl-N-[(1S,2S)-2-hydroxycycloheptyl]-4-[(4-pyrazol-1-ylphenyl)methyl]pyrrolo[2,3-b]pyridine-6-carboxamide] are 61.8% and 140 nM.
In the same order, the values of `Cn1ccc2c(Cc3ccc(-n4cccn4)cc3)cc(C(=O)N[C@H]3CCOC[C@@H]3O)nc21` [Compound 16, N-[(3R,4S)-3-hydroxytetrahydropyran-4-yl]-1-methyl-4-[(4-pyrazol-1-ylphenyl)methyl]pyrrolo[2,3-b]pyridine-6-carboxamide] are 63.4% and 10 nM.
As to `Cn1ccc2c(Cc3ccc(-n4cccn4)cc3)cc(C(=O)N[C@H]3CCCC[C@@H]3O)nc21` [Compound 17, N-[(1S,2S)-2-hydroxycyclohexyl]-1-methyl-4-[(4-pyrazol-1-ylphenyl)methyl]pyrrolo[2,3-b]pyridine-6-carboxamide], the maximal response (Emax) under setting [2] was 66.4%. Moreover, under setting [1], the EC50 came to 30 nM.
Regarding `Cn1ccc2c(Cc3ccc(-n4cccn4)cc3)cc(C(=O)NC3CCOCC3)nc21` [Compound 18, 1-methyl-4-[(4-pyrazol-1-ylphenyl)methyl]-N-tetrahydropyran-4-yl-pyrrolo[2,3-b]pyridine-6-carboxamide], the Emax under setting [2] is 73.1%. In addition, the EC50 under setting [1] came out at 180 nM.
Consider `Cn1ccc2c(Cc3ccc(-n4cccn4)cc3)cc(C(=O)NC3CC4(COC4)C3)nc21` [Compound 19, 1-methyl-N-(2-oxaspiro[3.3]heptan-6-yl)-4-[(4-pyrazol-1-ylphenyl)methyl]pyrrolo[2,3-b]pyridine-6-carboxamide], for which the Emax under setting [2] turned out to be 68.7%. Besides, the EC50 under setting [1] stood at 110 nM.
Turning to `Cn1ccc2c(Cc3ccc(-n4cccn4)cc3)cc(C(=O)N[C@H]3CC[C@@H]3O)nc21` [Compound 20, N-[(1S,2S)-2-hydroxycyclobutyl]-1-methy1-4-[(4-pyrazol-1-ylphenyl)methyl]pyrrolo[2,3-b]pyridine-6-carboxamide], the Emax under setting [2] is 73.3%. In addition, the concentration for a half-maximal effect (EC50) under setting [1] is 390 nM.
Turning to `Cn1ccc2c(Cc3ccc(-c4cscn4)cc3)cc(C(=O)N[C@H]3CCOC[C@@H]3O)nc21` [Compound 21, N-[(3R,4S)-3-hydroxytetrahydropyran-4-yl]-1-methyl-4-[(4-thiazol-4-ylphenyl)methyl]pyrrolo[2,3-b]pyridine-6-carboxamide], the maximal response (Emax) under setting [2] was 59.3%. For the same molecule, the EC50 under setting [1] was 20 nM.
